One series has as its system Leishmania major. In words: In vitro susceptibility of Leishmania major amastigotes in murine monocyte-derived bone marrow macrophages (Giemsa counting). Format: cell-based. The conditions noted are these: for multiplication index: analysis of variance; for percentage of macrophages infected: by day five; for number of amastigotes found in infected cells: day five. How it is done: Monocyte-derived bone marrow macrophages from C57B1/6 naïve mice. These cells were harvested from the femoral bones and incubated for 7 days at 37° C. in 5% CO2 in complete tissue culture medium [DMEM, 20% heat inactivated fetal calf serum, 1% Penicillin/streptomycin, 1% glutamine, 1% pyruvate, 30% L-cell line supernatant]. After 7 days, 50×10^6 macrophages per mouse donor were recovered from the cultures. The cells were then washed and 1×10^6 macrophages were added to the wells (16 mm diameter) of a 24 well plate at the bottom of which was placed a round glass cover slip. The macrophages were added to the wells in 300 μl of culture medium consisting of RPMI 1640,10% heat inactivated fetal calf serum, 1% Penicillin/streptomycin, 1% glutamine, 2.5% BEPES, and 0.1% 2-mercaptoethanol.
Cryopreserved amastigotes of Leishmania major (Friedlin strain), originally obtained from footpad lesions of SCID mice, were thawed, washed with medium and counted in a hemocytometer, then re-suspended in complete medium and added to the wells at a concentration of 1 million per well (amastigote/macrophage ratio 1:1) in 50 μl of complete medium. The total volume of media in each well was […].
Amphotericin B (Fungizone, Gibco) was reconstituted from a lyophilized form and azithromycin (Zithromax, Pfizer) was prepared from a 500 mg-powder vial for IV use; both antibiotics were reconstituted in sterile water and diluted in complete medium to the desired concentration. Amphotericin B was used at a concentration of 1 mg/ml and azithromycin at concentrations of 0.1, 0.6, 3 and 15 μg/ml.
After mixing the macrophages with the amastigotes, the plates were incubated for 3 hrs. at 37° C. in 5% Co2; at that point the plates were washed with PBS to eliminate non-adherent macrophages and free amastigotes. Medium with or without antibiotics was added to the wells at a final volume of 3 ml. Some of the cultures were removed from the wells at this point and placed in petri dishes containing 50 mls of medium with antibiotics. Amphotericin B was used as a positive control group in all the experiments. The cultures were maintained at 37° C. in 5% CO2 and culture media and antibiotics were changed daily.
Before adding antibiotics on day 0 and on days 3 and 5, cover slips were recovered from the wells and petri dishes, immediately fixed and stained with Giemsa for counting, which was performed using 1000X magnification with immersion oil. All the experiments were carried out in duplicate.
Two cover slips were recovered from each time point and the data obtained for each slide was as follows: 200 to 300 macrophages were counted, number of infected macrophages per 100 macrophages and number of amastigotes per 100 macrophages was determined. The results reported are the mean values of those two parasite counts. Experiments were repeated a minimum of two times.

The next series relates to macrophages. The conditions noted are these: levels versus that obtained in the serum (Gladue et al. 1989); cited from earlier work.
[1] abbreviates: amphotericin B at 1 mg/ml, Day 0 (before adding antibiotics).
Setting [2] is: amphotericin B at 1 mg/ml, Day 3.
Where [3] appears, read: amphotericin B at 1 mg/ml, Day 5.
The mark [4] stands for this setting: 0.1 μg/ml azithromycin, Day 0 (before adding antibiotics).
The mark [5] stands for this setting: 0.6 μg azithromycin, volume 3 ml, five days.
[6] abbreviates: 0.6 μg/ml azithromycin, Day 0 (before adding antibiotics).
[7] abbreviates: 3.0 μg azithromycin, volume 3 ml, five days.
Where [8] appears, read: 3.0 μg/ml azithromycin, Day 0 (before adding antibiotics).
Where [9] appears, read: 15 μg/ml azithromycin, Day 0 (before adding antibiotics).

As to `C[C@@H]1[C@H](O)[C@@H](C)/C=C/C=C/C=C/C=C/C=C/C=C/C=C/[C@H](O[C@@H]2O[C@H](C)[C@@H](O)[C@H](N)[C@@H]2O)C[C@@H]2O[C@](O)(C[C@@H](O)C[C@@H](O)[C@H](O)CC[C@@H](O)C[C@@H](O)CC(=O)O[C@H]1C)C[C@H](O)[C@H]2C(=O)O` [Amphotericin B], in the series on Leishmania major (1 mg/ml of amphotericin B), the multiplication index entry is “significant reduction”, the “percentage of macrophages infected” value is given as “significant decrease” and the “number of amastigotes found in infected cells” value is on record as “significant decrease”. Moreover, in the series with Leishmania major (setting [1]), the “Number of Amastigotes/100 macrophages” value is 27 /100 macrophages and the “Percent Infected Macrophages” value is given as 16%. In the series with Leishmania major (setting [2]), the “Number of Amastigotes/100 macrophages” value was 1 /100 macrophages and the “Percent Infected Macrophages” value worked out at 1%. Further, in the series on Leishmania major (setting [3]), the “Number of Amastigotes/100 macrophages” value is reported as 0 /100 macrophages and the “Percent Infected Macrophages” value was found to be 0%.
On to `CC[C@H]1OC(=O)[C@H](C)[C@@H](O[C@H]2C[C@@](C)(OC)[C@@H](O)[C@H](C)O2)[C@H](C)[C@@H](O[C@@H]2O[C@H](C)C[C@H](N(C)C)[C@H]2O)[C@](C)(O)C[C@@H](C)CN(C)[C@H](C)[C@@H](O)[C@]1(C)O` [azithromycin], for which the “Number of Amastigotes/100 macrophages” value is recorded as 27 /100 macrophages in the series on Leishmania major (setting [4]); 10 /100 macrophages in the series with Leishmania major (0.1 μg/ml azithromycin, Day 3); 38 /100 macrophages with Leishmania major (0.1 μg/ml azithromycin, Day 5); 11 /100 macrophages in the series with Leishmania major (0.6 μg azithromycin, five days); 23 /100 macrophages in the series on Leishmania major (setting [5]); 27 /100 macrophages with Leishmania major (setting [6]). Moreover, the “Number of Amastigotes/100 macrophages” value in the series on Leishmania major (0.6 μg/ml azithromycin, Day 3) is given as 14 /100 macrophages; with Leishmania major (0.6 μg/ml azithromycin, Day 5), 11 /100 macrophages; with Leishmania major (3.0 μg azithromycin, five days), 13 /100 macrophages; in the series on Leishmania major (setting [7]), 11 /100 macrophages; with Leishmania major (setting [8]), 27 /100 macrophages; in the series with Leishmania major (3.0 μg/ml azithromycin, Day 3) it was 45 /100 macrophages. Moreover, the “Number of Amastigotes/100 macrophages” value in the series with Leishmania major (3.0 μg/ml azithromycin, Day 5) was 13 /100 macrophages; in the series on Leishmania major (setting [9]), 27 /100 macrophages; in the series with Leishmania major (15 μg/ml azithromycin, Day 3), 13 /100 macrophages; in the series with Leishmania major (15 μg/ml azithromycin, Day 5) it was 12 /100 macrophages. Moreover, the “Percent Infected Macrophages” value is on record as 16% with Leishmania major (setting [4]); 8% with Leishmania major (0.1 μg/ml azithromycin, Day 3); 24% in the series on Leishmania major (0.1 μg/ml azithromycin, Day 5); 17% with Leishmania major (setting [5]); 10% with Leishmania major (0.6 μg azithromycin, volume 50 ml, five days); 16% with Leishmania major (setting [6]). The “Percent Infected Macrophages” value with Leishmania major (0.6 μg/ml azithromycin, Day 3) is 28%; with Leishmania major (0.6 μg/ml azithromycin, Day 5), 17%; in the series on Leishmania major (setting [7]) it was 9%; in the series with Leishmania major (3.0 μg azithromycin, volume 50 ml, five days), 11%; with Leishmania major (setting [8]), 16%; with Leishmania major (3.0 μg/ml azithromycin, Day 3), 31%. The “Percent Infected Macrophages” value with Leishmania major (3.0 μg/ml azithromycin, Day 5) turned out to be 9%; with Leishmania major (setting [9]) it was 16%; in the series with Leishmania major (15 μg/ml azithromycin, Day 3), 10%; with Leishmania major (15 μg/ml azithromycin, Day 5), 9%. The multiplication index entry in the series on Leishmania major (0.6-15 μg/ml of azithromycin) is given as “significant reduction”. The “ability to limit the replication of L. major (multiplication index) compared with 1 mg/ml of amphotericin B” value with Leishmania major (3 and 15 μg/ml of azithromycin) was “statistically equal”. Moreover, the “50% effective dose (ED50)” value with Leishmania major (L. major in murine macrophages in vitro) is less than 0.6 µg/mL. For the same molecule, in the series with Leishmania major (0.6-15 μg/ml of azithromycin), the “percentage of macrophages infected” value is “significant decrease”. Moreover, in the series on Leishmania major (3.0-15 μg/ml of azithromycin), the “number of amastigotes found in infected cells” value is “significant decrease”. For the same molecule, in the series on macrophages, the “drug accumulation in the tissue cells, especially in macrophages, relative to serum” value is 110 times.

The values are drawn from US20020049167A1, “Azithromycin as a therapeutic agent for infections with leishmania parasites” (priority 2000, published 2002).
